Laboratory results taken from ChEMBL document CHEMBL4823310, “Small Molecule Inhibitors of KRAS G12C Mutant” (ACS Med Chem Lett, 2021).

Assays:
[1] = Inhibition of ERK phosphorylation in human NCI-H358 cells incubated for 2 hrs by cellular assay; assay type: cell-based; details: NCI-H358, 2 h
GTPase KRas = GTPase KRas (Homo sapiens, UniProt P01116, C118S/C51S/C80L/G12C); experiment: Inhibition of biotinylated KRAS G12C/C51S/C80L/C118S mutant (unknown origin) pretreated for 60 mins followed by recombinant SOS addition by SOS-catalyzed nucleotide exchange-based TR-FRET analysis
Sequence of GTPase KRas (P01116 whole entry G12C/C51S/C80L/C118S): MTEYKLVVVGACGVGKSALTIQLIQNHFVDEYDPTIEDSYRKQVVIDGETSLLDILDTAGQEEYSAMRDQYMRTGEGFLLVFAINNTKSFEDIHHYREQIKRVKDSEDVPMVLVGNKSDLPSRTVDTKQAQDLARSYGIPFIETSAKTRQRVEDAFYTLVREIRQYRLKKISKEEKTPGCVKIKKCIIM

SMILES | IC50 [1] [nM] | IC50 (GTPase KRas) [nM]
C=CC(=O)N1C[C@H](C)N(c2nc(=O)n3c4nc(c(Cl)cc24)-c2c(ccc(F)c2F)OCCCc2ncnc(C(C)C)c2-3)C[C@H]1C | 3.6 | –
C=CC(=O)N1C[C@H](C)N(c2nc(=O)n3c4nc(c(F)cc24)-c2c(Cl)cccc2OCCCc2ccnc(C(C)C)c2-3)C[C@H]1C | 3.6 | –
[2H]C1([2H])Oc2ccc(F)c(F)c2-c2nc3c(cc2Cl)c(N2C[C@@H](C)N(C(=O)C=C)C[C@@H]2C)nc(=O)n3-c2c(ccnc2C(C)C)OC1([2H])[2H] | 6.1 | 0.51
C=CC(=O)N1CCN(c2nc(=O)n3c4nc(c(Cl)cc24)-c2c(F)cccc2OCC(F)(F)CCc2ccnc(C(C)C)c2-3)[C@@H](C)C1 | 3 | 0.56
C=CC(=O)N1C[C@H](C)N(c2nc(=O)n3c4nc(c(F)cc24)-c2c(ccc(F)c2F)OCCC(C)c2ccnc(C(C)C)c2-3)C[C@H]1C (stereo partly drawn) | 6.8 | –
C=CC(=O)N1C[C@H](C)N(c2nc(=O)n3c4nc(c(F)cc24)-c2c(F)cccc2OCCCc2ccnc(C(C)C)c2-3)C[C@H]1C | 8.8 | –
C=CC(=O)N1CCN(c2nc(=O)n3c4nc(c(F)cc24)-c2c(F)cccc2OCCCc2ccnc(C(C)C)c2-3)[C@@H](C)C1 | 6.7 | 4.3
C=CC(=O)N1CCN(c2nc(=O)n3c4nc(c(F)cc24)-c2c(F)cccc2OCCCCc2ccnc(C(C)C)c2-3)[C@@H](C)C1 | 1.5 | 2.4
C=CC(=O)N1C[C@H](C)N(c2nc(=O)n3c4nc(c(F)cc24)-c2c(F)cccc2OCCCCc2ccnc(C(C)C)c2-3)C[C@H]1C | 2.2 | –
C=CC(=O)N1C[C@H](C)N(c2nc(=O)n3c4nc(c(Cl)cc24)-c2c(F)ccc(F)c2OCCOc2ccnc(C(C)C)c2-3)C[C@H]1C | 4.4 | 1.1
C=CC(=O)N1C[C@H](C)N(c2nc(=O)n3c4nc(c(Cl)cc24)-c2c(F)cccc2OCCc2ccnc(C(C)C)c2-3)C[C@H]1C | 5.1 | 2.6
C=CC(=O)N1C[C@H](C)N(c2nc(=O)n3c4nc(c(Cl)cc24)-c2c(F)cccc2OCC(F)(F)COc2ccnc(C(C)C)c2-3)C[C@H]1C | 6.1 | –
